From PubChem BioAssay (NCI)
Where “and” joins values, the source holds several entries; their conditions need not be identical. Equal entries are not always repeated.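 In this assay, cells in 96-well plates receive the compound at five concentrations for 48 hours. Endpoints are linearly interpolated between the surrounding concentrations. GI50 = concentration required for 50% inhibition of growth. The concentration for full growth arrest is given as TGI.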

Assays:
Test in all cases: DTP human tumour cell line panel, 48 h
[1] = test system: 786-0 renal
[2] = test system: ACHN renal
[3] = test system: HCC-2998 colon
[4] = test system: KM12 colon
[5] = test system: M14 melanoma
[6] = test system: MALME-3M melanoma
[7] = test system: MOLT-4 leukemia
[8] = test system: NCI-H460 lung
[9] = test system: SF-295 CNS
[10] = test system: SK-OV-3 ovarian

CC[PH+](CC)CC.O=COC1OC([S-])C(OC=O)C(OC=O)C1OC=O.[Au+] (configuration not stated)
GI50 [1]: 1.51 µM | TGI [1]: 2.85 µM | GI50 [2]: 1.78 µM | TGI [2]: 3.16 µM | GI50 [3]: 1.6 µM | TGI [3]: 3.03 µM | GI50 [4]: 1.61 µM | TGI [4]: 3.19 µM | GI50 [5]: 1.15 µM | TGI [5]: 2.81 µM | GI50 [6]: 1.24 µM | TGI [6]: 2.58 µM | GI50 [7]: 2.2 µM | TGI [7]: 7.61 µM | GI50 [8]: 1.71 µM | TGI [8]: 3.69 µM | GI50 [9]: 1.8 µM | TGI [9]: 3.24 µM | GI50 [10]: 1.85 µM | TGI [10]: 3.36 µM

Cc1ccc(-c2csc(NC(=O)CN3CCN(c4cc5c(cc4F)c(=O)c(C(=O)O)cn5C4CC4)CC3)n2)cc1
GI50 [1]: 0.5 µM | TGI [1]: 15.2 µM | GI50 [2]: 2.58 µM | TGI [2]: 14.3 µM | GI50 [3]: 2.04 µM | TGI [3]: > 100 µM | GI50 [4]: 0.508 µM | TGI [4]: > 100 µM | GI50 [5]: 1.63 µM | TGI [5]: 32.9 µM | GI50 [6]: 1.75 µM | TGI [6]: 7.14 µM | GI50 [7]: 1.23 µM | TGI [7]: > 100 µM | GI50 [8]: 0.368 µM | TGI [8]: 17.1 µM | GI50 [9]: 1.15 µM | TGI [9]: 13.9 µM | GI50 [10]: 1.3 µM | TGI [10]: 5.52 µM

Cc1cc(Cl)ccc1Nc1nc(C(F)(F)F)ccc1C(=O)N/N=C/c1ccc([N+](=O)[O-])cc1
GI50 [1]: 3.09 µM | TGI [1]: > 40.9 µM | GI50 [2]: 1.08 µM | TGI [2]: 5.14 µM | GI50 [3]: 1.43 µM | TGI [3]: 4.28 µM | GI50 [4]: 0.838 µM | TGI [4]: 2.43 µM | GI50 [5]: 2.18 µM | TGI [5]: 7.96 µM | GI50 [6]: 1.68 µM | TGI [6]: 7.09 µM | TGI [7]: > 20 µM | GI50 [8]: 2.28 µM | TGI [8]: 7.45 µM | GI50 [9]: 1.55 µM | TGI [9]: 5.71 µM | GI50 [10]: 2.16 µM | TGI [10]: 7.27 µM

Cc1cc2c(cc1Cl)SC1=NN(C)C(N(C)C)N1S2(=O)=O (configuration not stated)
GI50 [1]: > 100 µM | TGI [1]: > 100 µM | GI50 [2]: > 100 µM | TGI [2]: > 100 µM | GI50 [3]: > 100 µM | TGI [3]: > 100 µM | GI50 [4]: > 100 µM | TGI [4]: > 100 µM | GI50 [5]: > 100 µM | TGI [5]: > 100 µM | GI50 [6]: > 100 µM | TGI [6]: > 100 µM | GI50 [7]: > 100 µM | TGI [7]: > 100 µM | GI50 [8]: > 100 µM | TGI [8]: > 100 µM | GI50 [9]: > 100 µM | TGI [9]: > 100 µM | GI50 [10]: > 100 µM | TGI [10]: > 100 µM

Cc1ccc(-c2cc(-c3ccccc3)c(C#N)c(=O)n2C2OC(CO)C(O)C(O)C2O)cc1 (configuration not stated)
TGI [1]: > 100 µM | TGI [2]: > 100 µM | TGI [3]: > 100 µM | TGI [4]: > 100 µM | TGI [5]: > 100 µM | TGI [6]: > 100 µM | TGI [7]: 85.3 µM | TGI [8]: > 100 µM | TGI [9]: > 100 µM | TGI [10]: > 100 µM

Cc1ccc(-c2cc(-c3ccco3)c(C#N)c(=O)n2C2OC(OC(=O)c3ccccc3)C(OC(=O)c3ccccc3)C2OC(=O)c2ccccc2)cc1 (configuration not stated)
TGI [1]: > 100 µM | TGI [2]: > 100 µM | TGI [3]: > 100 µM | TGI [4]: > 100 µM | TGI [5]: > 100 µM | TGI [6]: > 100 µM | TGI [7]: > 100 µM | TGI [8]: > 100 µM | TGI [9]: > 100 µM | TGI [10]: > 100 µM

C[C@]12CCCC(=O)C1(O)C[C@H](C(=O)O)CC2 (some centres not stated)
TGI [1]: > 100 µM | TGI [2]: > 100 µM | TGI [3]: > 100 µM | TGI [4]: > 100 µM | TGI [5]: > 100 µM | TGI [6]: > 100 µM | TGI [7]: > 100 µM | TGI [8]: > 100 µM | TGI [9]: > 100 µM | TGI [10]: > 100 µM

CCOc1cc(/C=N\Nc2nnc(C)n2N)c(C)cc1N(CCCl)CCCl
GI50 [1]: 1.51 µM | TGI [1]: 23.2 µM | GI50 [2]: 0.805 µM | TGI [2]: > 100 µM | GI50 [3]: 1.45 µM | TGI [3]: 16 µM | GI50 [4]: 0.897 µM | TGI [4]: 19.9 µM | GI50 [5]: 0.776 µM | TGI [5]: > 49.8 µM | GI50 [6]: 0.377 µM | TGI [6]: 6.77 µM | GI50 [7]: 0.876 µM | TGI [7]: 8.58 µM | GI50 [8]: 0.843 µM | TGI [8]: 31.5 µM | GI50 [9]: 1.13 µM | TGI [9]: 6.23 µM | GI50 [10]: 2.28 µM | TGI [10]: 8.24 µM

CCn1c(-c2nonc2N)nc2c(C#CC(C)(C)O)nc(OCCNC)cc21
GI50 [1]: 7.98 µM | TGI [1]: > 25 µM | GI50 [2]: 8.29 µM | TGI [2]: > 25 µM | GI50 [3]: 5.34 µM | TGI [3]: > 25 µM | GI50 [4]: 5.82 µM | TGI [4]: 23.3 µM | GI50 [5]: 8.15 µM | TGI [5]: 22.6 µM | GI50 [6]: 7.69 µM | TGI [6]: 20.6 µM | GI50 [7]: 8.68 µM | TGI [7]: > 25 µM | GI50 [8]: 7.83 µM | TGI [8]: > 25 µM | GI50 [9]: 6.66 µM | TGI [9]: > 22.6 µM | GI50 [10]: 5.74 µM | TGI [10]: > 25 µM

COc1ccc2[nH]c(O)c(C(=Nc3ccc(N(C)C(=O)CN4CCN(C)CC4)cc3)c3ccccc3)c2c1
GI50 [1]: 1.9 µM | TGI [1]: 5.52 µM | GI50 [2]: 2.54 µM | TGI [2]: 10.8 µM | GI50 [3]: 2.47 µM | TGI [3]: 8.59 µM | GI50 [4]: 0.0197 µM | TGI [4]: 10.5 µM | GI50 [5]: 1.26 µM | TGI [5]: 2.89 µM | GI50 [6]: 1.27 µM | TGI [6]: 2.85 µM | GI50 [7]: 1.45 µM | TGI [7]: 4.99 µM | GI50 [8]: 2.83 µM | TGI [8]: 11.1 µM | GI50 [9]: 4.65 µM | TGI [9]: 15.8 µM | GI50 [10]: 2.96 µM | TGI [10]: 9.32 µM

COC(=O)c1nc(Cl)nc(Cl)c1Cl
TGI [1]: 33.1 µM | TGI [2]: 27.7 µM | TGI [3]: 68.3 µM | TGI [4]: 47.3 µM | TGI [5]: 38.3 µM | TGI [6]: 45.9 µM | TGI [7]: 32.9 µM | TGI [8]: > 100 µM | TGI [9]: > 100 µM | TGI [10]: > 100 µM

C=CC(=O)Nc1cc2c(Nc3ccc(F)c(Cl)c3)ncnc2cc1OCCCN1CCOCC1
GI50 [1]: 2.04 µM and 3.04 µM | TGI [1]: 10.9 µM and > 10 µM | GI50 [2]: < 0.01 µM and 0.0448 µM | TGI [2]: 2.11 µM and > 10 µM | GI50 [3]: 1.82 µM and 2.67 µM | TGI [3]: 3.46 µM and > 6.08 µM | GI50 [4]: 3.18 µM and 5.3 µM | TGI [4]: 11.9 µM and > 10 µM | GI50 [5]: 1.7 µM and 4.48 µM | TGI [5]: 3.52 µM and > 10 µM | GI50 [6]: 2.41 µM and 6.17 µM | TGI [6]: 5.84 µM and > 10 µM | GI50 [7]: 1.85 µM and 2.87 µM | TGI [7]: 5.18 µM and > 9.25 µM | GI50 [8]: 3.65 µM and 5.27 µM | TGI [8]: 15.4 µM and > 10 µM | GI50 [9]: 4.12 µM | TGI [9]: 17.4 µM and > 10 µM | GI50 [10]: 0.0791 µM and 0.127 µM | TGI [10]: 4.1 µM and > 9.32 µM

COc1ccc(Cn2c3c(cc(OS(=O)(=O)C(F)(F)F)c2=O)Cc2ccccc2-3)cc1
GI50 [1]: 3.87 µM | TGI [1]: 50 µM and > 100 µM | GI50 [2]: 5.25 µM | TGI [2]: 50 µM and > 100 µM | TGI [3]: 50 µM | GI50 [4]: 41.1 µM | TGI [4]: 50 µM and > 100 µM | GI50 [5]: 11.4 µM | TGI [5]: 15.4 µM and 30.8 µM | GI50 [6]: 20.7 µM | TGI [6]: 50 µM and > 100 µM | GI50 [7]: 4.18 µM | TGI [7]: 50 µM and > 100 µM | TGI [8]: 50 µM and 36.4 µM | GI50 [9]: 31.7 µM | TGI [9]: 50 µM and > 100 µM | GI50 [10]: > 100 µM | TGI [10]: 50 µM and > 100 µM

Cc1ccc2nc(-c3ccc(N(C)C)c(Br)c3)cn2c1
GI50 [1]: > 100 µM | TGI [1]: > 100 µM | GI50 [2]: > 100 µM | TGI [2]: > 100 µM | GI50 [3]: > 100 µM | TGI [3]: > 100 µM | GI50 [4]: 54.1 µM | TGI [4]: > 100 µM | GI50 [5]: > 100 µM | TGI [5]: > 100 µM | GI50 [6]: > 100 µM | TGI [6]: > 100 µM | GI50 [7]: 3.99 µM | TGI [7]: > 100 µM | GI50 [8]: 4.18 µM | TGI [8]: > 100 µM | GI50 [9]: > 100 µM | TGI [9]: > 100 µM | GI50 [10]: > 100 µM | TGI [10]: > 100 µM
